Earlier results, collected in US11406602B2, “Substances for reducing occurrence of major cardiac events comprising red yeast rice extract and omega-3 polyunsaturated fatty acid or derivative thereof” (NORDIC NATURALS, INC., priority 2007, dated 2022).

Legend:
[1] = test system: patients; conditions: 20 mg/day for 24 weeks
[2] = 10, 20, and 40 mg/day
[3] = prior art description of lovastatin

- water solubility [3]: water insoluble
SMILES: CC[C@H](C)C(=O)O[C@H]1C[C@@H](C)C=C2C=C[C@H](C)[C@H](CC[C@@H]3C[C@@H](O)CC(=O)O3)[C@H]21 [Lovastatin, lovastatin]
- fall in total cholesterol [1]: 26%
- fall in triglycerides [1]: 12%
- reduction in LDL [2]: 21-32%
- reduction in total cholesterol [2]: 16-24%
- reduction in triglycerides ([2]; higher reduction at lower dosage): 10 to 6%
- decrease in triglycerides (slight decreases): 5-10%
- increase in high density lipoproteins (HDL) (slight to moderate increases): 10-20%
